Legend:
Assay type in all cases: cell-based
E. coli DH5α = assay: Antibacterial activity: MIC and growth curve against E. coli DH5α in 96-well plate; settings: minimal inhibitory concentration against E. coli DH5α; 96-well plate, 5×10^5 CFU/mL, 37° C., judged after 8 h
In short: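 Log-phase bacteria (OD600 ~0.5) resuspended in LB at 5×10^5 CFU/mL, exposed to recombinant protein at 50, 25, 12.5 μg/mL final in triplicate, 37 °C shaking at 175 rpm. OD600 read every 30 min; MIC is lowest concentration showing no growth.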

E. coli BL21 = assay: MIC against Gram-negative bacteria: E. coli BL21; settings: 5×10^5 CFU/mL
In short: (§1)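 Growth inhibition by human EGF domain proteins was scored in LB liquid culture seeded at 5×10^5 CFU/mL. Protein was applied as a two-fold dilution series in triplicate, with shaking incubation at 37° C; MIC is the lowest concentration giving no growth.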

Pseudomonas aeruginosa = assay: MIC against Gram-negative bacteria: Pseudomonas aeruginosa; settings: 5×10^5 CFU/mL
In short: as §1

Klebsiella pneumonia = assay: MIC against Gram-negative bacteria: Klebsiella pneumonia; settings: 5×10^5 CFU/mL
In short: as §1

Enterobacter cloacae = assay: MIC against Gram-negative bacteria: Enterobacter cloacae; settings: 5×10^5 CFU/mL
In short: as §1

Aeromonas hydrophila = assay: MIC against Gram-negative bacteria: Aeromonas hydrophila; settings: 5×10^5 CFU/mL
In short: as §1

Citrobacter diversus = assay: MIC against Gram-negative bacteria: Citrobacter diversus; settings: 5×10^5 CFU/mL
In short: as §1

Moraxella catarrhalis = assay: MIC against Gram-negative bacteria: Moraxella catarrhalis; settings: 5×10^5 CFU/mL
In short: as §1

Proteus mirabilis = assay: MIC against Gram-negative bacteria: Proteus mirabilis; settings: 5×10^5 CFU/mL
In short: as §1

Proteus vulgaris = assay: MIC against Gram-negative bacteria: Proteus vulgaris; settings: 5×10^5 CFU/mL
In short: as §1

Serratia marcescens = assay: MIC against Gram-negative bacteria: Serratia marcescens; settings: 5×10^5 CFU/mL
In short: as §1

[1] = 10 h cultivation at 37° C., two-fold serial dilution
[2] = E. coli BL21, 10 h cultivation at 37° C.
[3] = P. aeruginosa, 10 h cultivation at 37° C.
[4] = K. pneumonia, 10 h cultivation at 37° C.
[5] = E. cloacae, 10 h cultivation at 37° C.
[6] = A. hydrophila, 10 h cultivation at 37° C.
[7] = C. diversus, 10 h cultivation at 37° C.
[8] = M. catarrhalis, 10 h cultivation at 37° C.
[9] = P. mirabilis, 10 h cultivation at 37° C.
[10] = P. vulgaris, 10 h cultivation at 37° C.
[11] = S. marcescens, 10 h cultivation at 37° C.

PRT1104 (EVDECASDPCKNEATCLNEIGRYTCICPHNYSGVNCE; listed as Homo sapiens)
25 µg/mL: MIC E. cloacae (Enterobacter cloacae; [1]) | MIC C. diversus (Citrobacter diversus; [1]) | MIC P. mirabilis (Proteus mirabilis; [1]) | MIC S. marcescens (Serratia marcescens; [1])
12.5 µg/mL: MIC E. coli BL21 (E. coli BL21; [1]) | MIC K. pneumonia (Klebsiella pneumonia; [1]) | MIC M. catarrhalis (Moraxella catarrhalis; [1])
50 µg/mL: MIC (E. coli DH5α) | MIC P. aeruginosa (Pseudomonas aeruginosa; [1]) | MIC A. hydrophila (Aeromonas hydrophila; [1]) | MIC P. vulgaris (Proteus vulgaris; [1])

PRT74 (CDCFPHGSHSRTCDMATGQCACKPGVIGRQCNRCDNPFAEVTTLGCEV; listed as Homo sapiens)
50 µg/mL: MIC (E. coli DH5α) | MIC (μg/mL) K. pneumonia (Klebsiella pneumonia; Klebsiella pneumonia, 96-well plate, 37° C., 10 h)
12.5 µg/mL: MIC (μg/mL) E. coli BL21 (E. coli BL21; E. coli BL21, 96-well plate, 37° C., 10 h) | MIC (μg/mL) A. hydrophila (Aeromonas hydrophila; Aeromonas hydrophila, 96-well plate, 37° C., 10 h) | MIC (μg/mL) C. diversus (Citrobacter diversus; Citrobacter diversus, 96-well plate, 37° C., 10 h) | MIC (μg/mL) M. catarrhalis (Moraxella catarrhalis; Moraxella catarrhalis, 96-well plate, 37° C., 10 h) | MIC (μg/mL) P. mirabilis (Proteus mirabilis; Proteus mirabilis, 96-well plate, 37° C., 10 h) | MIC (μg/mL) P. vulgaris (Proteus vulgaris; Proteus vulgaris, 96-well plate, 37° C., 10 h)
25 µg/mL: MIC (μg/mL) P. aeruginosa (Pseudomonas aeruginosa; Pseudomonas aeruginosa, 96-well plate, 37° C., 10 h) | MIC (μg/mL) E. cloacae (Enterobacter cloacae; Enterobacter cloacae, 96-well plate, 37° C., 10 h) | MIC (μg/mL) S. marcescens (Serratia marcescens; Serratia marcescens, 96-well plate, 37° C., 10 h)

PRT1479 (AKNECHPERTDGCQHFCLPGQESYTCSCAQGYRLGEDHKQCV; listed as Homo sapiens)
12.5 µg/mL: MIC against E. coli BL21 (E. coli BL21; [2]) | MIC against A. hydrophila (Aeromonas hydrophila; Aeromonas hydrophila, 10 h cultivation at 37° C.) | MIC against M. catarrhalis (Moraxella catarrhalis; Moraxella catarrhalis, 10 h cultivation at 37° C.) | MIC against S. marcescens (Serratia marcescens; Serratia marcescens, 10 h cultivation at 37° C.)
50 µg/mL: MIC (E. coli DH5α) | MIC against P. aeruginosa (Pseudomonas aeruginosa; Pseudomonas aeruginosa, 10 h cultivation at 37° C.) | MIC against E. cloacae (Enterobacter cloacae; Enterobacter cloacae, 10 h cultivation at 37° C.) | MIC against C. diversus (Citrobacter diversus; Citrobacter diversus, 10 h cultivation at 37° C.) | MIC against P. vulgaris (Proteus vulgaris; Proteus vulgaris, 10 h cultivation at 37° C.)
100 µg/mL: MIC against K. pneumonia (Klebsiella pneumonia; Klebsiella pneumonia, 10 h cultivation at 37° C.)
25 µg/mL: MIC against P. mirabilis (Proteus mirabilis; Proteus mirabilis, 10 h cultivation at 37° C.)

PRT415 (DINECLSISAPCPIGHTCINTEGSYTCQKNVPNCGRGYHLNEEGTRCV; listed as Homo sapiens)
12.5 µg/mL: MIC (E. coli BL21; [2]) | MIC (Aeromonas hydrophila; [6]) | MIC (Proteus vulgaris; [10])
50 µg/mL: MIC (Klebsiella pneumonia; [4]) | MIC (Moraxella catarrhalis; [8])
25 µg/mL: MIC (E. coli DH5α) | MIC (Pseudomonas aeruginosa; [3]) | MIC (Enterobacter cloacae; [5]) | MIC (Citrobacter diversus; [7]) | MIC (Proteus mirabilis; [9]) | MIC (Serratia marcescens; [11])

PRT180 (DLDDCAGRACANGGTCVEGGGAHRCSCALGFGGRDCR; listed as Homo sapiens)
25 µg/mL: MIC (μg/mL) A. hydrophila (Aeromonas hydrophila; [6]) | MIC (μg/mL) M. catarrhalis (Moraxella catarrhalis; [8]) | MIC (μg/mL) P. vulgaris (Proteus vulgaris; [10])
50 µg/mL: MIC (μg/mL) E. cloacae (Enterobacter cloacae; [5]) | MIC (μg/mL) P. mirabilis (Proteus mirabilis; [9])
12.5 µg/mL: MIC (E. coli DH5α) | MIC (μg/mL) E. coli BL21 (E. coli BL21; [2]) | MIC (μg/mL) P. aeruginosa (Pseudomonas aeruginosa; [3]) | MIC (μg/mL) K. pneumonia (Klebsiella pneumonia; [4]) | MIC (μg/mL) C. diversus (Citrobacter diversus; [7]) | MIC (μg/mL) S. marcescens (Serratia marcescens; [11])

PRT791 (SQECQCHNGGTCDAATGQCHCSPGYTGERCQ; listed as Homo sapiens)
12.5 µg/mL: MIC (μg/mL) E. coli BL21 (E. coli BL21; [2]) | MIC (μg/mL) K. pneumonia (Klebsiella pneumonia; [4]) | MIC (μg/mL) A. hydrophila (Aeromonas hydrophila; [6]) | MIC (μg/mL) P. vulgaris (Proteus vulgaris; [10]) | MIC (μg/mL) S. marcescens (Serratia marcescens; [11])
50 µg/mL: MIC (E. coli DH5α) | MIC (μg/mL) P. aeruginosa (Pseudomonas aeruginosa; [3]) | MIC (μg/mL) E. cloacae (Enterobacter cloacae; [5]) | MIC (μg/mL) M. catarrhalis (Moraxella catarrhalis; [8])
25 µg/mL: MIC (μg/mL) C. diversus (Citrobacter diversus; [7]) | MIC (μg/mL) P. mirabilis (Proteus mirabilis; [9])

Source: US9833497B2, “Human originated EGF domain proteins and use of the same” (CHENGDU SOURCEBIO LIMITED-LIABILITY COMPANY, priority 2013, dated 2017)
